Source: PubChem BioAssay AID256 (DTP/NCI, 2004)
Toxic doses and inconclusive results are not listed. How the source made its calls: active means survival T/C of 150% or more; inactive means T/C below 125% in these data.

Tested on: CD2F1 mice, L1210 leukemia ip, survival T/C
Assay: NCI In Vivo Anticancer Drug Screen. Data for tumor model L1210 Leukemia (intraperitoneal) in CD2F1 (CDF1) mice
Conditions: endpoint: mean survival time, higher = longer survival
In short: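 Transplantable tumor in mice; compound-treated vs vehicle-treated groups. Read-out = treated/control ratio of the measured endpoint.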

[1] = dose: 75.0 mg/kg/injection, schedule: Q01DX001 (ip), vehicle: saline
[2] = dose: 150.0 mg/kg/injection, schedule: Q01DX001 (ip), vehicle: saline
[3] = dose: 100.0 mg/kg/injection, schedule: Q01DX009 (ip), vehicle: saline with Tween-80
[4] = dose: 100.0 mg/kg/injection, schedule: Q04DX003 (ip), vehicle: saline
[5] = dose: 200.0 mg/kg/injection, schedule: Q01DX009 (ip), vehicle: saline with Tween-80
[6] = dose: 200.0 mg/kg/injection, schedule: Q04DX003 (ip), vehicle: saline
[7] = dose: 400.0 mg/kg/injection, schedule: Q04DX003 (ip), vehicle: saline
[8] = dose: 100.0 mg/kg/injection, schedule: Q04DX003 (ip), vehicle: saline with Tween-80
[9] = dose: 200.0 mg/kg/injection, schedule: Q04DX003 (ip), vehicle: saline with Tween-80
[10] = dose: 400.0 mg/kg/injection, schedule: Q04DX003 (ip), vehicle: saline with Tween-80
[11] = dose: 100.0 mg/kg/injection, schedule: Q01DX001 (ip), vehicle: saline with Tween-80
[12] = dose: 200.0 mg/kg/injection, schedule: Q01DX001 (ip), vehicle: saline with Tween-80
[13] = dose: 400.0 mg/kg/injection, schedule: Q01DX001 (ip), vehicle: saline with Tween-80

Measured: T/C

CN(C)CCCN(C)CCCN(C)C
inactive: [1] 104 % of control | [2] 103 % of control

CN=C(N)N/N=C/c1ccccc1
inactive: dose: 7.5 mg/kg/injection, schedule: Q04DX003 (ip), vehicle: saline 95 % of control | dose: 15.0 mg/kg/injection, schedule: Q04DX003 (ip), vehicle: saline 97 % of control | dose: 30.0 mg/kg/injection, schedule: Q04DX003 (ip), vehicle: saline 112 % of control

CCOC(=O)C(Cc1ccccc1OC)P(=O)(OCC)OCC (stereo unspecified)
inactive: [1] 100 % of control | [2] 94 % of control | dose: 300.0 mg/kg/injection, schedule: Q01DX001 (ip), vehicle: saline 96 % of control

CC(C)N=C1C([O-])=N[N+](C)(C)N1C(C)C
inactive: [3] 106 % of control | [4] 95 % of control | [5] 93 % of control | [6] 98 % of control | dose: 400.0 mg/kg/injection, schedule: Q01DX009 (ip), vehicle: saline with Tween-80 98 % of control | [7] 110 % of control

CC(CO)CCC(=O)C(C)C1CC2(C)CCC3C(CCC4CC(O)CCC43C)C2C12SCCS2 (stereo unspecified)
inactive: [8] 98 % of control | [9] 102 % of control | [10] 98 % of control

CCOC1OC(COC(C)=O)C(OC(C)=O)C(OC(C)=O)C1OC(C)=O (stereo unspecified)
inactive: [11] 94 % of control | [12] 97 % of control | [13] 96 % of control

COC1=CC(=O)C(OC)=C(OC)C1=O
inactive: dose: 3.12 mg/kg/injection, schedule: Q01DX009 (ip), vehicle: saline with Tween-80 94 % of control | dose: 6.25 mg/kg/injection, schedule: Q01DX009 (ip), vehicle: saline with Tween-80 97 % of control | dose: 12.5 mg/kg/injection, schedule: Q01DX009 (ip), vehicle: saline with Tween-80 97 % of control | dose: 25.0 mg/kg/injection, schedule: Q01DX009 (ip), vehicle: saline with Tween-80 100 % of control | dose: 50.0 mg/kg/injection, schedule: Q01DX009 (ip), vehicle: saline with Tween-80 105 % of control

CCOC(=O)c1cnc(SCc2ccccc2)[nH]c1=O
inactive: [8] 107 % of control | [9] 110 % of control | [10] 102 % of control

CC(=O)COc1cc(C)cc(C)c1
inactive: [11] 104 % of control | [12] 95 % of control | [13] 101 % of control

O=[N+]([O-])c1cccc(OCCCOc2ccccc2)c1
inactive: dose: 100.0 mg/kg/injection, schedule: Q04DX003 (ip), vehicle: other 93 % of control | dose: 200.0 mg/kg/injection, schedule: Q04DX003 (ip), vehicle: other 93 % of control | dose: 400.0 mg/kg/injection, schedule: Q04DX003 (ip), vehicle: other 94 % of control

Cc1cccc[n+]1CCCS(=O)(=O)[O-]
inactive: [4] 104 % of control | [6] 102 % of control | [7] 101 % of control

O=C1C(CO)(CO)CCC1(CO)CO
inactive: dose: 100.0 mg/kg/injection, schedule: Q01DX009 (ip), vehicle: saline 91 % of control | dose: 200.0 mg/kg/injection, schedule: Q01DX009 (ip), vehicle: saline 93 % of control | dose: 400.0 mg/kg/injection, schedule: Q01DX009 (ip), vehicle: saline 98 % of control

CCOC(=O)c1cc(C)nc2c(Cl)cc(Cl)cc12
inactive: [3] 87 % of control | [8] 87 % of control | [5] 87 % of control | [9] 88 % of control | [10] 86 % of control

Cc1cccc(CCF)c1
inactive: [11] 110 % of control | [12] 107 % of control | [13] 98 % of control

CCCOC(=O)c1ccc(N)cc1
inactive: [11] 102 % of control | [12] 104 % of control | [13] 103 % of control
